The source of these data is US20170114049A1, “2,5-DISUBSTITUTED CYCLOPENTANE CARBOXYLIC ACIDS FOR THE TREATMENT OF RESPIRATORY TRACT DISEASES” (BAYER PHARMA AKTIENGESELLSCHAFT, priority 2014, published 2017).

The target of one series is T1, mouse MMP-2 (Mus musculus, UniProt P33434).
T1 construct: purchased R&D Systems 924-MP
In words: In vitro mouse MMP-2 inhibition test. In kind it is biochemical. The source says: (§1) The MMP-mediated amidolytic cleavage of a suitable peptide substrate leads to an increase in fluorescent light here too. The signal intensity of the fluorescent light is directly proportional to the enzyme activity. The active concentration of a test compound at which half the enzyme is inhibited (50% signal intensity of the fluorescent light) is reported as the […].
(§2) Recombinant mouse MMP-2 (from R&D Systems, 924-MP) is chemically activated in accordance with the manufacturer's instructions using APMA. 1 μl of the test compound to be analysed (as a solution in DMSO, suitable concentrations, for example, 1 nM to 30 μM) is pipetted into 24 μl of activated enzyme (final concentration, for example, 0.1 nM) in reaction buffer (50 mM Tris/HCl pH 7.5, 10 mM CaCl2, 150 mM NaCl, 0.05% Brij®-35) in a white 384-hole microtiter plate (MTP). The enzymatic reaction is started by adding the intramolecularly quenched Mca-Pro-Leu-Gly-Leu-Dpa(Dnp)-Ala-Arg-NH2 substrate (final concentration, for example, 10 μM; R&D Systems, ES-001), so as to result in a total test volume of 50 μl. The course of the MMP-2 reaction is measured by measuring the fluorescence intensity (excitation 320 nm, emission 410 nm) over a suitable period of time (for example over 120 min at a temperature of 32° C.).

The target in a further series is T2, mouse MMP-9 (Mus musculus, UniProt P41245).
T2 construct: purchased R&D Systems 909-MP
In words: In vitro mouse MMP-9 inhibition test. In kind it is biochemical.
From the text: as §1
as §2, with “mouse MMP-9” for “mouse MMP-2”, “Systems, 909-MP)” for “Systems, 924-MP)”, “example, 5” for “example, 10”, “the MMP-9” for “the MMP-2”

A further series has as its target T3, mouse MMP-12 (Mus musculus, UniProt P34960).
T3 construct: purchased R&D Systems 3467-MP
In words: In vitro mouse MMP-12 inhibition test (standard or high-sensitivity). Format: biochemical.
From the text: as §1
Recombinant mouse MMP-12 (from R&D Systems, 3467-MP) is autocatalytically activated in accordance with the manufacturer's instructions. 1 μl of the test compound to be analysed (as a solution in DMSO, suitable concentrations, for example, 1 nM to 30 μM) is pipetted into 24 μl of activated enzyme (final concentration, for example, 1 nM) in reaction buffer (50 mM Tris/HCl pH 7.5, 10 mM CaCl2, 150 mM NaCl, 0.05% Brij®-35) in a white 384-hole microtiter plate (MTP). The enzymatic reaction is started by adding the intramolecularly quenched Mca-Lys-Pro-Leu-Gly-Leu-Dpa(Dnp)-Ala-Arg-NH2 substrate (final concentration, for example, 5 μM; R&D Systems, ES-010), so as to result in a total test volume of 50 μl. The course of the MMP-12 reaction is measured by measuring the fluorescence intensity (excitation 320 nm, emission 410 nm) over a suitable period of time (for example over 120 min at a temperature of 32° C.).
In this case, an enzyme concentration ten times lower is used (final concentration, for example, 0.1 nM) in order to achieve an elevated test sensitivity. The incubation period chosen for the test is correspondingly longer (for example 16 hours).

Another series deals with rat hepatocytes. In words: Hepatocyte assay for determination of metabolic stability. To be noted: after incubation with rat hepatocytes.

T1 sequence (P33434 110-662): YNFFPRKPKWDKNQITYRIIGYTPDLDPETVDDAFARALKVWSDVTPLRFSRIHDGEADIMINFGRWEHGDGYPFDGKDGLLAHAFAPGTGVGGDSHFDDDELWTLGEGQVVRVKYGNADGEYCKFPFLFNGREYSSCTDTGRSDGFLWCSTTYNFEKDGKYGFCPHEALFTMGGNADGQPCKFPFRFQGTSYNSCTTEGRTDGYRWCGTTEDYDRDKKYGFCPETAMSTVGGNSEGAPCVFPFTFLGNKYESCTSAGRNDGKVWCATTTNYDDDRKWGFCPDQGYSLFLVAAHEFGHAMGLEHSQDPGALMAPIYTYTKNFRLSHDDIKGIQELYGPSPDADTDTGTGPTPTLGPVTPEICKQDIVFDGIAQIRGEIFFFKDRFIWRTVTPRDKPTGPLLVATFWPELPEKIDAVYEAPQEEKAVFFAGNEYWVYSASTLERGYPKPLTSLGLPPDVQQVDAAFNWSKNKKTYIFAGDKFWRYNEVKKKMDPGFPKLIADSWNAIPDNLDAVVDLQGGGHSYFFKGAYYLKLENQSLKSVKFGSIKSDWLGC
T2 sequence (P41245 108-730): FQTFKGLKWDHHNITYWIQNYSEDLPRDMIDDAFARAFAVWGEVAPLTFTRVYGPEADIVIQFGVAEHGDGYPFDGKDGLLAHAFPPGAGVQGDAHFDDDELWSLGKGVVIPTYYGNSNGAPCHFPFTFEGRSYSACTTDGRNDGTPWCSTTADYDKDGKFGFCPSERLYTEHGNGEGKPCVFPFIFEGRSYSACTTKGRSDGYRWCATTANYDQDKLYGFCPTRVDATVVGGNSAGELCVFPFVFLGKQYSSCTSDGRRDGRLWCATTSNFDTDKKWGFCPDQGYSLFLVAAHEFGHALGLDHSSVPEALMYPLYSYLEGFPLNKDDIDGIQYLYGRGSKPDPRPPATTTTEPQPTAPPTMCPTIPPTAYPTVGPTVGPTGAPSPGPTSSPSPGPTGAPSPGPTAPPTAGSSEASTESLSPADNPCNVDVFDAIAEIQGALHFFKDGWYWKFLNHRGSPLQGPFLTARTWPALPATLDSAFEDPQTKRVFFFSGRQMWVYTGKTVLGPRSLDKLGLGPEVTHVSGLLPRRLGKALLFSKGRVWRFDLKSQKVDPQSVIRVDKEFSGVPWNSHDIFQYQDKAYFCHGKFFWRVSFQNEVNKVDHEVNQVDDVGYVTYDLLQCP
T3 sequence (P34960 110-473): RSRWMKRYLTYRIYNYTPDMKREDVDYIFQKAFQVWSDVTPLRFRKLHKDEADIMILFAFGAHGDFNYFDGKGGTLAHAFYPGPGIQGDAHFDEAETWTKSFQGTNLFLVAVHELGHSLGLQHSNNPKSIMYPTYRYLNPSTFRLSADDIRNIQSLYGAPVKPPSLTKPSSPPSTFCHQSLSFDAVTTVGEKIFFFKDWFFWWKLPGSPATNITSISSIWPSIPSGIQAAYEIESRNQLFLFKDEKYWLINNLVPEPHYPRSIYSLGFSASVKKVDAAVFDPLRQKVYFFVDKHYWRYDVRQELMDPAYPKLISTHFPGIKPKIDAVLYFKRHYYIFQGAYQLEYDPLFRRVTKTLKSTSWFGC
Experimental for rat hepatocytes: Seven samples from the incubation solution are taken for the LC-MS analysis within a fixed time pattern, in order to determine the half-life (i.e. the degradation) of the particular compound. This half life is used to calculate various “Clearance” parameters (CL) and “Fmax” values (see below).
The CL and Fmax values are a measure of the phase 1 and phase 2 metabolism of the compounds in the hepatocytes. In order to minimize the influence of the organic solvent on the enzymes in the incubation batches, the concentration thereof is generally limited to 1% (acetonitrile) or 0.1% (DMSO).
For all species and breeds, a hepatocyte cell count in the liver of 1.1*10^8 cells/g of liver is expected.
The parameters calculated and the meanings thereof are: • Fmax well-stirred [%] maximum possible bioavailability after oral administration • Calculation: (1-CLblood well-stirred/QH)*100 • CLblood well-stirred [L/(h*kg)] calculated blood clearance (well-stirred model) • Calculation: (QH*CLintrinsic)/(QH+CL′intrinsic) • CL′intrinsic[ml/(min*kg)] maximum ability of the liver (of the hepatocytes) to metabolize a compound (assuming that the liver blood flow is not rate-limiting) • Calculation: CLintrinsic, apparent* species-specific hepatocyte count [1.1* 10^8/g liver]*species-specific liver weight [g/kg] • CL′intrinsic, apparent[ml/(min*mg)] normalizes the elimination constant by dividing it by the hepatocyte cell count x used (x*10^6/ml) • Calculation: kcl[1/min]/(cell count [x*10^6]/incubation volume [ml]) • (QH=species-specific liver blood flow).

On to `Cc1ccc2nnn(C[C@@H]3CC[C@H](C(=O)c4ccc(OCCC5CCOCC5)cc4)[C@H]3C(=O)O)c(=O)c2c1` (racemic) [Example 19, (+/−)-(1RS,2SR,5RS)-2-[(6-Methyl-4-oxo-1,2,3-benzotriazin-3(4H)-yl)methyl]-5-{4-[2-(letrahydro-2H-pyran-4-yl)ethoxy]benzoyl}cyclopentanecarboxylic acid], for which the IC50 amounted to 840 nM against mouse MMP-2, 2200 nM on mouse MMP-9 and 7.6 nM on mouse MMP-12.

For the compound `O=C(O)[C@H]1[C@H](Cn2nnc3ccccc3c2=O)CC[C@@H]1C(=O)c1ccc(OCCC2CCOCC2)cc1` (stereo in doubt) [Example 4, (+/−)-(1RS,2SR,5RS)-2-[(4-Oxo-1,2,3-benzotriazin-3(4H)-yl)methyl]-5-{4-[2-(tetrahydro-2H-pyran-4-yl)ethoxy]benzoyl}cyclopentanecarboxylic acid], the IC50 against mouse MMP-2 amounted to 490 nM; against mouse MMP-9, 1500 nM; against mouse MMP-12, 7.7 nM.

Turning to `O=C(O)[C@@H]1[C@@H](Cn2nnc3ccc(C(F)(F)F)cc3c2=O)CC[C@H]1C(=O)c1ccc(OCCC2CCOCC2)cc1` (single isomer, unassigned) [Example 11, (+)-(1RS,2SR,5RS)-2-{[4-Oxo-6-(trifluoromethyl)-1,2,3-benzotriazin-3(4H)-yl]methyl}-5-{4-[2-(tetrahydro-2H-pyran-4-yl)ethoxy]benzoyl}cyclopentanecarboxylic acid], the IC50 stood at 640 nM on mouse MMP-2, 1900 nM against mouse MMP-9 and 9.4 nM at mouse MMP-12.

`O=C(O)[C@H]1[C@H](Cn2nnc3ccccc3c2=O)CC[C@@H]1C(=O)c1ccc(OCC2CCOCC2)cc1` (stereo in doubt) [Example 1, (+/−)-(1RS,2SR,5RS)-2-[(4-Oxo-1,2,3-benzotriazin-3(4H)-yl)methyl]-5-[4-(tetrahydro-2H-pyran-4-ylmethoxy)benzoyl]cyclopentanecarboxylic acid]: the IC50 on mouse MMP-2 came to 170 nM; against mouse MMP-9 it was 560 nM; against mouse MMP-12 it was 3.3 nM. Further, the “CLblood (calculated blood clearance, well-stirred)” value in the series on rat hepatocytes was 17 mL/min/kg. In addition, the “Fmax (maximum possible bioavailability after oral administration, well-stirred)” value (“Fmax” for short) with rat hepatocytes came out at 75.7%.

For the compound `O=C(O)[C@@H]1[C@@H](Cn2nnc3ccccc3c2=O)CC[C@H]1C(=O)c1ccc(OCC2CCOCC2)cc1` (stereo in doubt) [Example 2, (+)-(1RS,2SR,5RS)-2-[(4-Oxo-1,2,3-benzotriazin-3(4H)-yl)methyl]-5-[4-(tetrahydro-2H-pyran-4-ylmethoxy)benzoyl]cyclopentanecarboxylic acid], the values for the IC50 against mouse MMP-2, against mouse MMP-9 and on mouse MMP-12 were 58 nM, 280 nM and 0.85 nM, respectively. In addition, the “CLblood (calculated blood clearance, well-stirred)” value in the series with rat hepatocytes was 7.33 mL/min/kg. Besides, the “Fmax” value with rat hepatocytes is 89.5%.

In the case of `Cc1ccc2nnn(C[C@H]3CC[C@@H](C(=O)c4ccc(OCCC5CCOCC5)cc4)[C@@H]3C(=O)O)c(=O)c2c1` (single isomer, unassigned) [Example 20, (+)-(1RS,2SR,5RS)-2-[(6-Methyl-4-oxo-1,2,3-benzotriazin-3(4H)-yl)methyl]-5-{4-[2-(tetrahydro-2H-pyran-4-yl)ethoxy]benzoyl}cyclopentanecarboxylic acid], the values for the IC50 at mouse MMP-2, at mouse MMP-9 and against mouse MMP-12 were 340 nM, 800 nM and 1.7 nM, respectively.

As to `O=C(O)[C@H]1[C@H](Cn2nnc3ccc(C(F)(F)F)cc3c2=O)CC[C@@H]1C(=O)c1ccc(OCCC2CCOCC2)cc1` (stereo in doubt) [Example 10, (+/−)-(1RS ,2S R,5RS)-2-{[4-Oxo-6-(trifluoromethyl)-1,2,3-benzotriazin-3(4H)-yl]methyl}-5-{4-[2-(tetrahydro-2H-pyran-4-yl)ethoxy]benzoyl}cyclopentanecarboxylic acid], the IC50 against mouse MMP-2 stood at 300 nM; on mouse MMP-9, 930 nM; against mouse MMP-12, 2.8 nM.

In the case of “(+)-(1RS,2SR,5RS)-2-{[4-Oxo-6-(trifluoromethyl)-1,2,3-benzotriazin-3(4H)-yl]methyl}-5-[4-(tetra-hydro-2H-pyran-4-ylmethoxy)benzoyl]cyclopentanecarboxylic acid [Example 8]”, in the series with rat hepatocytes, the “CLblood (calculated blood clearance, well-stirred)” value was 4.83 mL/min/kg and the “Fmax” value was 93.1%.

Take `O=C(O)[C@@H]1[C@@H](Cn2nnc3ccccc3c2=O)CC[C@H]1C(=O)c1ccc(OCCC2CCOCC2)cc1` (single isomer, unassigned) [Example 5, (+)-(1RS,2SR,5RS)-2-[(4-Oxo-1,2,3-benzotriazin-3(4H)-yl)methyl]-5-{4-[2-(tetrahydro-2H-pyran-4-yl)ethoxy]benzoyl}cyclopentanecarboxylic acid]: the IC50 came out at 45 nM against mouse MMP-2, 210 nM against mouse MMP-9 and 0.67 nM against mouse MMP-12.

What is called IC50 is the concentration at which inhibition is half-maximal.
